In publication PMC11314063, “Inhibition of DNA Topoisomerase Ι by Flavonoids and Polyacetylenes Isolated from Bidens pilosa L” (Molecules, 2024):
Read-outs that look alike come from different tables or passages of the source.

What was measured:
HCT116 = test: SRB cytotoxicity assay, HCT116; format: cell-based; conditions: Homo sapiens, read-out: IC50 Cytotoxicity HCT116
From the text: (§1) The cell lines MDA-MB-231 (No. TCHu227), A549 (No. TCHu150), and HepG2 (No. TCHu72) were obtained from the Cell Bank/Stem Cell Bank, Chinese Academy of Sciences (Shanghai, China). The cell lines DLD-1 (No. CC0507) and HCT116 (No. CC0506) were obtained from the Cell Bank of Cellcook Biotech Co., Ltd. (Guangzhou, China). Cell line HL-7702 (No. BNCC338358) was obtained from Bena Culture Collection (Zhengzhou, China).
(§2) The human cancer cell lines MDA-MB-231 (breast adenocarcinoma), DLD-1 (colorectal adenocarcinoma), A549 (lung epithelial carcinoma), HCT116 (colorectal adenocarcinoma), HepG2 (hepatocellular carcinoma), and human hepatocyte HL-7702 were cultured in Dulbecco’s modified eagle medium (DMEM, Biological Industries, Beit Haemek, Israel) containing 10% (v/v) fetal bovine serum (FBS, Biological Industries, Beit Haemek, Israel) at 37 °C in a humidified incubator (ThermoFisher, Carlsbad, CA, USA) with a 5% CO2 atmosphere.

HepG2 = test: SRB cytotoxicity assay, HepG2; format: cell-based; conditions: Homo sapiens, read-out: IC50 Cytotoxicity HepG2
From the text: as §1, §2

MDA-MB-231 = test: SRB cytotoxicity assay, MDA-MB-231; format: cell-based; conditions: Homo sapiens, read-out: IC50 Cytotoxicity MDA-MB-231
From the text: as §1, §2

[1] = SRB cytotoxicity assay, hepatocyte HL-7702; format: cell-based, human
From the text: as §1, §2

A549 = test: SRB cytotoxicity assay, A549; format: cell-based; conditions: Homo sapiens, read-out: IC50 Cytotoxicity A549
From the text: as §1, §2

DLD-1 = test: SRB cytotoxicity assay, DLD-1; format: cell-based; conditions: Homo sapiens, read-out: IC50 Cytotoxicity DLD-1
From the text: as §1, §2

DNA Topo I = biological target: T1, DNA Topo I (Homo sapiens, UniProt P11387); test: Topo I inhibition assay (DNA relaxation assay); format: biochemical; conditions: for IC50: DNA relaxation assay, pBR322, mean ± SD; for percentage inhibition on Topo I activity / inhibition at 400 µM: at 400 μM; for inhibition at 400 µM: read-out: percentage inhibition on Topo I activity
T1 construct: purchased ThermoFisher, Waltham, MA, USA
T1 sequence (P11387 1-765): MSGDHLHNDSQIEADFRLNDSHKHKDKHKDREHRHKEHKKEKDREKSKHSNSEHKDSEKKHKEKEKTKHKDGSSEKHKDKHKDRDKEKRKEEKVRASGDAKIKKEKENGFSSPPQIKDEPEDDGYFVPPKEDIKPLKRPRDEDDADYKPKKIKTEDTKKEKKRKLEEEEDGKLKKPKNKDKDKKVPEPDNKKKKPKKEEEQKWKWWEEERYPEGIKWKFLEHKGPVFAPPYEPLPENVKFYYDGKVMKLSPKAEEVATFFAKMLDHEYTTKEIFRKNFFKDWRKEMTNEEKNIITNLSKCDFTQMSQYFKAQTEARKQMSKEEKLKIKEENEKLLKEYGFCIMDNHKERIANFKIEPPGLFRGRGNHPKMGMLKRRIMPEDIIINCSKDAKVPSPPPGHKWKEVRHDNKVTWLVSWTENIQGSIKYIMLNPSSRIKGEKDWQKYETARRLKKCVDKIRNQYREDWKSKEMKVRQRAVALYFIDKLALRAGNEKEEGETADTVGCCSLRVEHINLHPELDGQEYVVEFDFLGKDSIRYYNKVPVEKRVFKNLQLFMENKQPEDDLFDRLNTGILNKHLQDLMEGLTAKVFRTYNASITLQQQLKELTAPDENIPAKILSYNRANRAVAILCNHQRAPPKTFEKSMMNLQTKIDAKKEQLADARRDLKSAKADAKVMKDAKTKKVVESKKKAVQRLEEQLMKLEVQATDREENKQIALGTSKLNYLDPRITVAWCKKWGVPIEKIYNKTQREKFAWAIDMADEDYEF
Description: The DNA relaxation assay was adopted to investigate the compounds’ inhibitory activities on Topo I. Different concentrations of the compounds, dissolved and diluted in DMSO, were added into the relaxation buffer (50 mM Tris, pH 7.5, 50 mM KCl, 10 mM MgCl2, 0.1 mM EDTA, 0.5 Mm dithiothreitol, and 0.05 mg/mL bovine serum albumin) containing 0.2 U Topo I (ThermoFisher, Waltham, MA, USA) and incubated at room temperature for 10 min. After that, 500 ng supercoiled pBR322 plasmid DNA (ThermoFisher, Waltham, MA, USA) was added and then incubated at 37 °C for another 30 min. Finally, the reactions were stopped with a stopping solution (5% sodium dodecyl sulfate, 0.0025% bromophenol blue, and 25% glycerol), and the mixtures were applied onto 0.8% agarose gel and subjected to electrophoresis for 1.5 h in Tris-Acetate-EDTA buffer. After being stained with GelRed (Biotium, Fremont, CA, USA), the gel was imagined with the imaging system (Biotop, Shanghai, China). […] The band density of the supercoiled DNA was quantified by the ImageJ software (version 1.53a, National Institutes of Health, Bethesda, MD, USA), and the inhibition activity is expressed as the percentage inhibition and calculated by formula: Inhibition % = [(A − B)/(C − B)] × 100%, where A is the band density of the tested samples, B is the band density of the negative control, and C is the band density of the blank control.

[2] = HCT-116, SRB assay, 48 h, mean ± SD
[3] = HepG2, SRB assay, 48 h, mean ± SD
[4] = MDA-MB-231, SRB assay, 48 h, mean ± SD
[5] = HL-7702 hepatocyte cell line, SRB assay, 48 h, human hepatocyte, mean ± SD, read-out: IC50 Cytotoxicity HL-7702
[6] = A549, SRB assay, 48 h, mean ± SD
[7] = DLD-1, SRB assay, 48 h, mean ± SD

Row | Compound | IC50 (DNA Topo I) | percentage inhibition on Topo I activity (DNA Topo I) | inhibition at 400 µM (DNA Topo I) | IC50 (HCT116; [2]) | IC50 (HepG2; [3]) | IC50 (MDA-MB-231; [4]) | IC50 at 48 h [1, 5] | IC50 (A549; [6]) | IC50 (DLD-1; [7]) | IC50 (HCT116; HCT-116, 48 h) | IC50 (HepG2; HepG2, 48 h) | IC50 (MDA-MB-231; MDA-MB-231, 48 h) | IC50 at 48 h ([1]; human) | IC50 (A549; A549, 48 h) | IC50 (DLD-1; DLD-1, 48 h)
1 | CC[C@@]1(O)C(=O)OCc2c1cc1n(c2=O)Cc2cc3ccccc3nc2-1 [CPT, Camptothecin, reference compound] |  |  |  | 12.1 ± 5.74 µM | 1.71 ± 0.47 µM | 20.4 ± 3.7 µM | 2.11 µM | 4.41 ± 1.11 µM | 17 ± 3.82 µM |  |  |  |  |  | 
2 | COc1ccc(/C=C/C(=O)c2ccc(O[C@@H]3O[C@H](CO)[C@@H](O)[C@H](O)[C@H]3O)c(O[C@@H]3O[C@H](CO)[C@@H](O)[C@H](O)[C@H]3O)c2O)cc1O [Compound 1, 4-O-methylokanin 3′,4′-di-O-β-D-glucopyranoside] | 394 ± 39 µM |  |  | > 200 µM | > 200 µM | > 200 µM | > 200 µM | > 200 µM | > 200 µM |  |  |  |  |  | 
3 | COc1ccc(/C=C/C(=O)c2ccc(O)c(O[C@@H]3O[C@H](CO)[C@@H](O)[C@H](O)[C@H]3O)c2O)cc1O [Compound 2] | 329 ± 58.8 µM |  |  | > 200 µM | > 200 µM | > 200 µM | > 200 µM | > 200 µM | > 200 µM |  |  |  |  |  | 
4 | COc1ccc(-c2oc3c(O)c(OC)c(O[C@@H]4O[C@H](CO)[C@@H](O)[C@H](O)[C@H]4O)cc3c(=O)c2OC)cc1O [Compound 9] | > 400 µM | no inhibition |  | 87.7 ± 15.3 µM | > 200 µM | > 200 µM | 126 ± 7.08 µM | 135 ± 32.3 µM | 50.5 ± 0.31 µM |  |  |  |  |  | 
5 | COc1ccc(-c2oc3cc(O[C@@H]4O[C@H](CO)[C@@H](O)[C@H](O)[C@H]4O)c(OC)c(O)c3c(=O)c2OC)cc1O [Compound 14] | > 400 µM | no inhibition |  | > 200 µM | > 200 µM | > 200 µM | > 200 µM | > 200 µM | > 200 µM |  |  |  |  |  | 
6 | COc1ccc([C@@H]2CC(=O)c3ccc(O)c(O[C@@H]4O[C@H](CO)[C@@H](O)[C@H](O)[C@H]4O)c3O2)cc1O [Compound 16] | > 400 µM |  | 10.9% | > 200 µM | > 200 µM | > 200 µM | > 200 µM | > 200 µM | > 200 µM |  |  |  |  |  | 
7 | COc1ccc([C@@H]2CC(=O)c3c(O)cc(O[C@@H]4O[C@H](CO)[C@@H](O)[C@H](O)[C@H]4O)cc3O2)cc1O [Compound 17] | > 400 µM | no inhibition |  | > 200 µM | > 200 µM | > 200 µM | > 200 µM | > 200 µM | > 200 µM |  |  |  |  |  | 
8 | CC(=O)OC[C@H]1O[C@@H](Oc2ccc3c(c2O)O/C(=C\c2ccc(O)c(O)c2)C3=O)[C@H](O)[C@@H](O)[C@@H]1O [Compound 19] | 47.5 ± 15.3 µM |  |  | > 200 µM | > 200 µM | > 200 µM | > 200 µM | > 200 µM | > 200 µM |  |  |  |  |  | 
9 | OC[C@H](O)CC#CC#Cc1ccc(O)cc1 [Compound 20, (R)-7-(4-hydroxyphenyl) hepta-4,6-diyne-1,2-diol] | 301 ± 34.9 µM |  |  | 174 ± 2.47 µM | > 200 µM | > 200 µM | > 200 µM | 194 ± 12.8 µM | > 200 µM |  |  |  |  |  | 
10 | OCC(O)CC#CC#Cc1ccccc1 (stereo not drawn) [Compound 21] | > 400 µM |  | 23% | > 200 µM | > 200 µM | > 200 µM | > 200 µM | 187 ± 6.63 µM | > 200 µM |  |  |  |  |  | 
11 | CC(O)CC#CC#Cc1ccccc1 (stereo not drawn) [Compound 22] | 178 ± 45.7 µM |  |  | 118 ± 5.7 µM | 179 ± 3.62 µM | 146 ± 7.17 µM | 161 ± 2.18 µM | 125 ± 23.4 µM | 142 ± 10.2 µM |  |  |  |  |  | 
12 | CC#CC#CC#Cc1ccccc1 [Compound 23] | > 400 µM |  | 15.2% | 70.9 ± 3.73 µM | 168 ± 10.8 µM | 140 ± 5.53 µM | 198.8 ± 0.86 µM | 130 ± 4.93 µM | 123 ± 8.76 µM |  |  |  |  |  | 

Second part, led by results:

Row | IC50 (DNA Topo I) | percentage inhibition on Topo I activity (DNA Topo I) | inhibition at 400 µM (DNA Topo I) | Compound | IC50 (HCT116; [2]) | IC50 (HepG2; [3]) | IC50 (MDA-MB-231; [4]) | IC50 at 48 h [1, 5] | IC50 (A549; [6]) | IC50 (DLD-1; [7]) | IC50 (HCT116; HCT-116, 48 h) | IC50 (HepG2; HepG2, 48 h) | IC50 (MDA-MB-231; MDA-MB-231, 48 h) | IC50 at 48 h ([1]; human) | IC50 (A549; A549, 48 h) | IC50 (DLD-1; DLD-1, 48 h)
13 | > 400 µM | no inhibition |  | COc1cc(O)c2c(=O)c(OC)c(-c3ccc(O)c(O)c3)oc2c1 [Compound 4] | 4.52 ± 0.04 µM | 3.05 ± 1.31 µM | > 200 µM | 19.6 ± 0.62 µM | 8.16 ± 4.04 µM | 7.14 ± 0.35 µM |  |  |  |  |  | 
14 | 190 ± 22.1 µM |  |  | COc1cc(-c2oc3cc(O)c(OC)c(O)c3c(=O)c2O)ccc1O [Compound 8] | > 200 µM | > 200 µM | > 200 µM | > 200 µM | 178 ± 4.38 µM | 187 ± 48.6 µM |  |  |  |  |  | 
15 | > 400 µM | no inhibition |  | COc1cc(OC)cc(-c2oc3cc(O[C@@H]4O[C@H](CO)[C@@H](O)[C@H](O)[C@H]4O)cc(O)c3c(=O)c2O)c1 [Compound 10] | 59.3 ± 4.56 µM | > 200 µM | > 200 µM | 114.8 ± 0.55 µM | > 200 µM | 63 ± 4.08 µM |  |  |  |  |  | 
16 | > 400 µM |  | 26.4% | COc1c(O[C@@H]2O[C@H](CO)[C@@H](O)[C@H](O)[C@H]2O)cc2oc(-c3ccc(O)c(O)c3)c(OC)c(=O)c2c1O [Compound 12] | > 200 µM | > 200 µM | > 200 µM | > 200 µM | > 200 µM | > 200 µM |  |  |  |  |  | 
17 | 89.9 ± 28.1 µM |  |  | O=c1cc(-c2ccc(O)c(O)c2)oc2cc(O)cc(O)c12 [Compound 15, luteolin] |  |  |  |  |  |  | 31.7 ± 1.54 µM | 175 ± 16.6 µM | 94.91 ± 0.5 µM | > 200 µM | 93.9 ± 2.92 µM | 69.2 ± 4.04 µM
18 | > 400 µM |  | 46.7% | O=C1/C(=C/c2ccc(O)c(O)c2)Oc2c1ccc(O[C@@H]1O[C@H](CO)[C@@H](O)[C@H](O)[C@H]1O)c2O [Compound 18] | > 200 µM | > 200 µM | > 200 µM | > 200 µM | > 200 µM | > 200 µM |  |  |  |  |  | 
